Literature values as cited in US20160066563A1, “COMPOSITIONS AND METHODS FOR COLLECTING, WASHING, CRYOPRESERVING, RECOVERING AND RETURN OF LIPOASPIRATES TO PHYSICIAN FOR AUTOLOGOUS ADIPOSE TRANSFER PROCEDURES” (priority 2012, published 2016).

System: cells
Conditions: at room temperature or body temperature

SMILES | toxicity to cells
C[S+](C)[O-] [DMSO, dimethylsulfoxide] | toxic to cells
OCC(O)CO [glycerol] | not toxic
